From patent publication US10800792B2, “Inhibitors of Bruton's tyrosine kinase and method of their use” (JANSSEN PHARMACEUTICA NV, priority 2015, dated 2020) come the findings set out here.

Chain of unphosphorylated-BTK kinase domain (UP-BTK), GST-tagged human BTK (389-659aa) (Q06187 389-659): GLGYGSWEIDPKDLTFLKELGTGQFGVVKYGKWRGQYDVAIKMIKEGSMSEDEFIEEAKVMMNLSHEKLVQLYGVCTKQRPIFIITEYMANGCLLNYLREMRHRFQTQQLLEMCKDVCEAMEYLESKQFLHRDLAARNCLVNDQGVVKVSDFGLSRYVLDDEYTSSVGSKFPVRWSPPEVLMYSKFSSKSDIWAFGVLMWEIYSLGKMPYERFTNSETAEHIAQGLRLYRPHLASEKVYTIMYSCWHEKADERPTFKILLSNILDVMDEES

The target of the experiment is unphosphorylated-BTK kinase domain (UP-BTK), GST-tagged human BTK (389-659aa) (Homo sapiens (Human), UniProt Q06187). The experiment is described as follows: BTK kinase Lanthascreen binding assay. The settings on record: Lanthascreen tracer competition, 60 minutes incubation; pIC50 = negative log of the IC50 in molar. The method, boiled down:
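Tracer-displacement binding assay against the non-phosphorylated enzyme, read by Lanthascreen. Reported: pIC50.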
For `O=C(N[C@@H]1CCCNC1)c1sc2nccc3c2c1NC(=O)N3c1ccc(Oc2ccccc2)cc1` [Example 860, (R)-4-oxo-5-(4-phenoxyphenyl)-N-(piperidin-3-yl)-4,5-dihydro-3H-1-thia-3,5,8-triazaacenaphthylene-2-carboxamide], the “BTK_I_binding pIC50” value was determined as 7.4.
In the case of `Cc1cc(Oc2cccc(COc3ccccc3C#N)c2)ccc1N1C(=O)Nc2c(C(=O)N[C@@H]3CCCN(C(=O)/C(C#N)=C/C4CC4)C3)sc3nccc1c23` [Example 861, (R,E)-N-(1-(2-Cyano-3-cyclopropylacryloyl)piperidin-3-yl)-5-(4-(3-((2-cyanophenoxy)methyl)phenoxy)-2-methylphenyl)-4-oxo-4,5-dihydro-3H-1-thia-3,5,8-triazaacenaphthylene-2-carboxamide] it was 7.3; in that of `COc1ccc(N2C(=O)Nc3c(C(=O)N[C@@H]4CCCN(C(=O)/C(C#N)=C/C5CC5)C4)sc4nccc2c34)c(C)c1` [Example 862, (R,E)-N-(1-(2-Cyano-3-cyclopropylacryloyl)piperidin-3-yl)-5-(4-methoxy-2-methylphenyl)-4-oxo-4,5-dihydro-3H-1-thia-3,5,8-triazaacenaphthylene-2-carboxamide], 7.3.
To `C=CC(=O)N1CCC[C@H](NC(=O)c2sc3nccc4c3c2NC(=O)N4c2ccc(Oc3ccccc3)cc2C)C1` [Example 863, (S)—N-(1-Acryloylpiperidin-3-yl)-5-(2-methyl-4-phenoxyphenyl)-4-oxo-4,5-dihydro-3H-1-thia-3,5,8-triazaacenaphthylene-2-carboxamide] belongs 7.3; to `C=CC(=O)N1CC[C@H](NC(=O)c2sc3nccc4c3c2NC(=O)N4c2ccc(Oc3ccccc3)cc2C)C1` [Example 864, (S)—N-(1-Acryloylpyrrolidin-3-yl)-5-(2-methyl-4-phenoxyphenyl)-4-oxo-4,5-dihydro-3H-1-thia-3,5,8-triazaacenaphthylene-2-carboxamide], 7.3.
To `Cc1cc(Oc2ccccc2)ccc1N1C(=O)Nc2c(C(=O)NC3CCNCC3)sc3nccc1c23` [Example 865, 5-(2-Methyl-4-phenoxyphenyl)-4-oxo-N-(piperidin-4-yl)-4,5-dihydro-3H-1-thia-3,5,8-triazaacenaphthylene-2-carboxamide] belongs 7.3; to `Cc1cc(Oc2ccccc2)ccc1N1C(=O)Nc2c(C(=O)N[C@@H]3CCCN(C(=O)/C=C/CN4CCCC4)C3)sc3nccc1c23` [Example 867, (R,E)-5-(2-Methyl-4-phenoxyphenyl)-4-oxo-N-(1-(4-(pyrrolidin-1-yl)but-2-enoyl)piperidin-3-yl)-4,5-dihydro-3H-1-thia-3,5,8-triazaacenaphthylene-2-carboxamide], 7.3.
For the molecule `Cc1cc(Oc2ccccc2)ccc1N1C(=O)Nc2c(C(=O)N[C@@H]3CCN(C(=O)/C(C#N)=C/C(C)(C)C)C3)sc3nccc1c23` [Example 868, (R,E)-N-(1-(2-Cyano-4,4-dimethylpent-2-enoyl)pyrrolidin-3-yl)-5-(2-methyl-4-phenoxyphenyl)-4-oxo-4,5-dihydro-3H-1-thia-3,5,8-triazaacenaphthylene-2-carboxamide], the “BTK_I_binding pIC50” value came out at 7.3.
As for `COc1ccccc1Oc1ccc(N2C(=O)Nc3c(C(=O)NC4CCCNC4)sc4nccc2c34)c(C)c1` (stereo not shown) [Example 870, 5-(4-(2-Methoxyphenoxy)-2-methylphenyl)-4-oxo-N-(piperidin-3-yl)-4,5-dihydro-3H-1-thia-3,5,8-triazaacenaphthylene-2-carboxamide], the “BTK_I_binding pIC50” value is given as 7.3.
To `CCC(=O)N1CCC[C@@H](NC(=O)c2sc3nccc4c3c2NC(=O)N4c2ccc(Oc3ccccc3)cc2C)C1` [Example 871, (R)-5-(2-Methyl-4-phenoxyphenyl)-4-oxo-N-(1-propionylpiperidin-3-yl)-4,5-dihydro-3H-1-thia-3,5,8-triazaacenaphthylene-2-carboxamide] belongs 7.3.
In the case of `Cc1cc(Oc2ccccc2)ccc1N1C(=O)Nc2c(C(=O)NC3CCN(C#N)CC3)sc3nccc1c23` [Example 872, N-(1-Cyanopiperidin-4-yl)-5-(2-methyl-4-phenoxyphenyl)-4-oxo-4,5-dihydro-3H-1-thia-3,5,8-triazaacenaphthylene-2-carboxamide] it was 7.2; in that of `Cc1cc(Oc2ccccc2)ccc1N1C(=O)Nc2c(C(=O)N[C@@H]3CCCN(C)C3)sc3nccc1c23` [Example 873, (R)-5-(2-Methyl-4-phenoxyphenyl)-N-(1-methylpiperidin-3-yl)-4-oxo-4,5-dihydro-3H-1-thia-3,5,8-triazaacenaphthylene-2-carboxamide], 6.9.
To `Cc1cc(Oc2ccccc2)ccc1N1C(=O)Nc2c(C(=O)N[C@@H]3CCCN(C(=O)[C@H]4CCCN4)C3)sc3nccc1c23` [Example 876, 5-(2-Methyl-4-phenoxyphenyl)-4-oxo-N—((R)-1-((R)-pyrrolidine-2-carbonyl)piperidin-3-yl)-4,5-dihydro-3H-1-thia-3,5,8-triazaacenaphthylene-2-carboxamide] belongs 7.1; to `Cc1cc(Oc2ccccc2)ccc1N1C(=O)Nc2c(C(=O)NC3CCCN(C(=O)/C(C#N)=C/C4CC4)C3)sc3nccc1c23` (stereo not shown) [Example 877, (E)-N-(1-(2-Cyano-3-cyclopropylacryloyl)piperidin-3-yl)-5-(2-methyl-4-phenoxyphenyl)-4-oxo-4,5-dihydro-3H-1-thia-3,5,8-triazaacenaphthylene-2-carboxamide], 7.1; to `COc1ccc(N2C(=O)Nc3c(C(=O)NC4CCCN(C(=O)/C(C#N)=C/C5CC5)C4)sc4nccc2c34)c(C)c1` (stereo not shown) [Example 878, (E)-N-(1-(2-Cyano-3-cyclopropylacryloyl)piperidin-3-yl)-5-(4-methoxy-2-methylphenyl)-4-oxo-4,5-dihydro-3H-1-thia-3,5,8-triazaacenaphthylene-2-carboxamide], 7.1.
Take `Cc1cc(Oc2ccccc2)ccc1N1C(=O)Nc2c(C(=O)N[C@H]3CCCN(C=O)C3)sc3nccc1c23` [Example 879, (S)—N-(1-Formylpiperidin-3-yl)-5-(2-methyl-4-phenoxyphenyl)-4-oxo-4,5-dihydro-3H-1-thia-3,5,8-triazaacenaphthylene-2-carboxamide]: the “BTK_I_binding pIC50” value stood at 7.1.
In the case of `Cc1cc(Oc2ccccc2)ccc1N1C(=O)Nc2c(C(=O)N[C@@H]3CCCN(C(=O)/C(C#N)=C/C(C)(C)C)C3)sc3nccc1c23` [Example 880, (R,E)-N-(1-(2-Cyano-4,4-dimethylpent-2-enoyl)piperidin-3-yl)-5-(2-methyl-4-phenoxyphenyl)-4-oxo-4,5-dihydro-3H-1-thia-3,5,8-triazaacenaphthylene-2-carboxamide], the “BTK_I_binding pIC50” value is on record as 7.1.
To `C=CC(=O)N1CC[C@@H](NC(=O)c2sc3nccc4c3c2NC(=O)N4c2ccc(Oc3ccccn3)cc2)C1` [Example 881, (R)—N-(1-Acryloylpyrrolidin-3-yl)-4-oxo-5-(4-(pyridin-2-yloxy)phenyl)-4,5-dihydro-3H-1-thia-3,5,8-triazaacenaphthylene-2-carboxamide] belongs 7.1.
To `Cc1cc(Oc2ccccc2)ccc1N1C(=O)Nc2c(C(=O)NC3CCCN(C(=O)CC#N)C3)sc3nccc1c23` (stereo not shown) [Example 882, N-(1-(2-Cyanoacetyl)piperidin-3-yl)-5-(2-methyl-4-phenoxyphenyl)-4-oxo-4,5-dihydro-3H-1-thia-3,5,8-triazaacenaphthylene-2-carboxamide] belongs 7.0.
